According to US20020187514A1 (priority 1999, published 2002):
Structures can show the parent of a compound that is named as a salt.

How the values were obtained:
Imidazoline, I2, central = assay: Imidazoline, I2, central; [3H]2-BFI; type: binding; conditions: reference compound, QA/QC; read-out: Ref Kj
Melatonin = assay: Melatonin; [125I]-2-Iodomelatonin; type: binding; conditions: reference compound, QA/QC; read-out: Ref Kj
Imidazoline, I1 = assay: Imidazoline, I1; [125I]-Clonidine; type: binding; conditions: reference compound, QA/QC; read-out: Ref Kj
Histamine, H3 = assay: Histamine, H3; [3H]N-a-MeHistamine; type: binding; conditions: reference compound, QA/QC; read-out: Ref Kj
Glucocorticoid = Glucocorticoid (UniProt P06536); conditions: read-out: Ref Kj
Histamine, H1 = target: T1, Histamine, H1 (Bos taurus, UniProt P30546); assay: Histamine, H1; [3H]Pyrilamine; type: binding
T1 construct: no other source notation after assay name denotes animal cell or animal tissue source; from tissue; host or cells: animal cell or animal tissue, not specified
T1 sequence (P30546 whole entry): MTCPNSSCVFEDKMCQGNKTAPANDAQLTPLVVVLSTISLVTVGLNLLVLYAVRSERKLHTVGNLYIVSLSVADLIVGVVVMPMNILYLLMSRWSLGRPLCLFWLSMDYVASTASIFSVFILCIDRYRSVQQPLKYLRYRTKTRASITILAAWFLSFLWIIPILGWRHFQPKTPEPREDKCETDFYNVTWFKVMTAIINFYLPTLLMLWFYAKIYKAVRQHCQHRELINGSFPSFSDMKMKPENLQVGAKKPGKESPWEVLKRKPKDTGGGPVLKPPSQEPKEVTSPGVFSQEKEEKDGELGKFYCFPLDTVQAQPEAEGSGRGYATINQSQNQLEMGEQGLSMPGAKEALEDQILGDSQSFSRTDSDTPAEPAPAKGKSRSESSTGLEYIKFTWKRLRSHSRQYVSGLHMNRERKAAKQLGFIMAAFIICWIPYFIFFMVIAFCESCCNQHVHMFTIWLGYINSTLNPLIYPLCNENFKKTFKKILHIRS

Glucocorticoid, sequence (P06536 whole entry): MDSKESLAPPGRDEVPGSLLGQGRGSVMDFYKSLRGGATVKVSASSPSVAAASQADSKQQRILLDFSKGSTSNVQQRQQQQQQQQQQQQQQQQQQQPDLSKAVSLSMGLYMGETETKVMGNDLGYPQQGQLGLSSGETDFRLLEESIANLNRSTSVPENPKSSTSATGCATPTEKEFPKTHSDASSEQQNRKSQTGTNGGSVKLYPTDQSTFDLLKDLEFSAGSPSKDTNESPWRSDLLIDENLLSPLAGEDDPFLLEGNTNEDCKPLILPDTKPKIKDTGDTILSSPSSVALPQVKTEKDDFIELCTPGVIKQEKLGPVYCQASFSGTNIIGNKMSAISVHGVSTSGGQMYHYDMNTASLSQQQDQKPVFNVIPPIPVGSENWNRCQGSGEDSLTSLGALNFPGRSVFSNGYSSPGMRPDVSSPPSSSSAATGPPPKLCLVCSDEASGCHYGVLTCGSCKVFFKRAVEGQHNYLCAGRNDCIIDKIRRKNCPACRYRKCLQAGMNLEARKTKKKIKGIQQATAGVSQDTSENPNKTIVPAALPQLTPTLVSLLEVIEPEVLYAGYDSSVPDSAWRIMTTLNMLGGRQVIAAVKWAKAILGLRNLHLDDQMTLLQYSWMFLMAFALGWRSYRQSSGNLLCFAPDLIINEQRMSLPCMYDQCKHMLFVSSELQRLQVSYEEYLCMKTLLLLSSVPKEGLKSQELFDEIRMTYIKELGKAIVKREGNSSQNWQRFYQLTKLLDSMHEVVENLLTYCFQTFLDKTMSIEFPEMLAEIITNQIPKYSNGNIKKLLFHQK

In the case of `c1ccc2oc(C3=NCCN3)cc2c1` [2-BFI], the Ki (Imidazoline, I2, central) is reported as 0.054 nM.

`Clc1cc(I)cc(Cl)c1NC1=NCCN1` [Iodoclonidine] showed a Ki (Imidazoline, I1) of 7.89 nM.

`CNCCc1cnc[nH]1` [N-a-Methylhistamine (NAMH), N-a-Methylhistamine] gave a Ki (Histamine, H3) of 1.31 nM.

For `C[C@]12C=CC(=O)C=C1CC[C@H]1[C@@H]3C[C@@H](O)[C@](O)(C(=O)CO)[C@@]3(C)C[C@H](O)[C@@]12F` [Triamcinolone], the Ki (Glucocorticoid) was 1.74 nM.

`Cc1ccc(/C(=C\CN2CCCC2)c2ccccn2)cc1` [Triprolidine HCl] showed a Ki (Histamine, H1) of 3.6 nM.
